Assay results: patent US20090186024A1, “Gene Expression Signatures for Oncogenic Pathway Deregulation” (priority 2005, published 2009)

Test system: breast cancer cell lines
Assay: Cell proliferation assays (growth inhibition, standard MTT/MTS colorimetric assay)
Format: cell-based
Conditions: 96 hrs, versus DMSO controls, FIG. 4B
Protocol: FIGS. 4A-4B show pathway deregulation in breast cancer cell lines predicts drug sensitivity. A. Pathway predictions in breast cancer cell lines. The results plotted show images of the predicted probability of pathway activation (red indicates high probability, blue indicates low probability). B. Sensitivity to pathway-specific drugs. Left panel. Cells were treated with 3.75 μM of farnesyltransferase inhibitor (L-744,832) for 96 hrs. Proliferation was assayed using a standard MTS tetrazolium colorimetric method. The degree of proliferation inhibition was plotted as a function of probability of Ras pathway activation as determined in panel A. Middle panel. Same as in left panel but using farnesylthiosalicylic acid (200 μM). Right panel. Same as in left panel but using the Src pathway inhibitor SU6656 (1.5 μM), and with the degree of proliferation inhibition plotted as a function of Src pathway activation. […]
Cell and RNA preparation. […] Expression of oncogenes and their secondary targets was determined by a standard Western Blotting protocol using a TGH lysis buffer (1% Triton X-100, 10% glycerol, 50 mM NaCl, 50 mM Hepes, pH 7.3, 5 mM EDTA, 1 mM sodium orthovanadate, 1 mM PMSF, 10 μg/ml leupeptine, 10 μg/ml aprotinin). […] Protein quantitation of lysates was determined by BCA [Pierce] prior to electrophoresis with a 10-12% SDS-PAGE gel. Activation status of kinase pathways for the breast cancer cell lines was determined for growing cells (at 75% confluency) 48 hours after plating using the following methods. Ras activation is measured using a Ras Activation Assay Kit (Upstate Biotechnology) that consists of a GST fusion-protein corresponding to the human Ras Binding Domain (RBD, residues 1-149) of Raf-1. […] Western Blotting for immunoprecipitated H/K-Ras is detected using an H/K-Ras specific antibody (Santa Cruz Biotechnology, #sc-520 and sc-F234). c-Src activation was determined by Western Blotting using a phospho-Tyr416 Src antibody (Cell Signaling, #2101). […]

| SMILES | relation between probability of Ras pathway deregulation (gene expression prediction) and extent of cell proliferation inhibition by the drug | relation between probability of Src pathway deregulation (gene expression prediction) and extent of cell proliferation inhibition by the drug |
| --- | --- | --- |
| CC(C)=CCCC(C)=CCCC(C)=CCSc1ccccc1C(=O)O [FTS, farnesylthiosalicylic acid] | close concordance and correlation | – |
| CC[C@H](C)[C@@H](CO[C@@H](Cc1ccccc1)C(=O)N[C@@H](CCS(C)(=O)=O)C(=O)OC(C)C)NC[C@@H](N)CS [L-744,832] | close concordance and correlation | – |
| CN(C)S(=O)(=O)c1ccc2c(c1)/C(=C/c1cc3c([nH]1)CCCC3)C(=O)N2 [SU6656] | – | close concordance and correlation |
